Measured values published in ChEMBL document CHEMBL4257451, “Synergism of fused bicyclic 2-aminothiazolyl compounds with polymyxin B against Klebsiella pneumoniae” (Medchemcomm, 2017).

Columns and labels:
[1] = tested on: Klebsiella pneumoniae; test: Growth inhibition of Klebsiella pneumoniae SIPI-KPN-1712 by broth microdilution method; type: organism-based; settings: in vitro
[2] = tested on: Klebsiella pneumoniae; test: Synergistic antibacterial activity against Klebsiella pneumoniae SIPI-KPN-1712 assessed as polymixin B MIC at 4 ug/ml by broth microdilution method (reference value: 32 ug/ml); type: functional
[3] = tested on: Klebsiella pneumoniae; test: Synergistic antibacterial activity against Klebsiella pneumoniae SIPI-KPN-1712 assessed as fractional Inhibitory concentration index in presence of polymixin B at 2 ug/ml by broth microdilution method; type: functional

MIC [2]	SMILES	MIC [1]	fractional inhibitory concentration index (FICI) [3]
16 µg/mL	Cc1ccc(Nc2nc3c(s2)C(OC(C)C)CCC3)cc1 (stereo not given)	> 128 µg/mL	0.53
16 µg/mL	COC1CCCc2nc(Nc3cccnc3)sc21 (stereo not given)	> 128 µg/mL	0.53
32 µg/mL	COC1CCCc2nc(Nc3ccccc3Cl)sc21 (stereo not given)	> 128 µg/mL	1.03
16 µg/mL	CCOC1CCCc2nc(Nc3ccc(F)cc3)sc21 (stereo not given)	> 128 µg/mL	0.53
32 µg/mL	OC1CCCc2nc(Nc3ccccc3)sc21 (stereo not given)	> 128 µg/mL	1.03
16 µg/mL	CCCOC1CCCc2nc(Nc3ccc(C)cc3)sc21 (stereo not given)	> 128 µg/mL	0.53
32 µg/mL	COC1CCCc2nc(Nc3ccc(NC(C)=O)cc3)sc21 (stereo not given)	> 128 µg/mL	1.03
32 µg/mL	COC1CCCc2nc(Nc3ccc(Oc4ccc(F)cc4)cc3)sc21 (stereo not given)	> 128 µg/mL	1.03
16 µg/mL	OC1CCCc2nc(Nc3ccc(Cl)cn3)sc21 (stereo not given)	> 128 µg/mL	0.53
32 µg/mL	COC1CCCc2nc(Nc3cccc(C)c3C)sc21 (stereo not given)	> 128 µg/mL	1.03
32 µg/mL	COCCOC1CCCc2nc(Nc3ccc(C)cc3)sc21 (stereo not given)	> 128 µg/mL	1.03
4 µg/mL	COC1CCCc2nc(Nc3ccc(C(F)(F)F)cc3Cl)sc21 (stereo not given)	> 128 µg/mL	0.16
16 µg/mL	COC1CCCc2nc(Nc3ccc(C#N)c(C(F)(F)F)c3)sc21 (stereo not given)	> 128 µg/mL	0.53
16 µg/mL	OC1CCCc2nc(Nc3ccc4ccccc4c3)sc21 (stereo not given)	> 128 µg/mL	0.53
16 µg/mL	CC(=O)c1ccc(Nc2nc3c(s2)C(O)CCC3)cc1 (stereo not given)	> 128 µg/mL	0.53
16 µg/mL	CCCOC1CCCc2nc(Nc3ccc(F)cc3)sc21 (stereo not given)	> 128 µg/mL	0.53
16 µg/mL	O=C(OC1CCCc2nc(Nc3ccccc3)sc21)n1ccnc1 (stereo not given)	> 128 µg/mL	0.53
16 µg/mL	CCOC1CCCc2nc(Nc3ncccn3)sc21 (stereo not given)	> 128 µg/mL	0.53
16 µg/mL	COc1cc(Nc2nc3c(s2)C(OC)CCC3)cc(OC)c1OC (stereo not given)	> 128 µg/mL	0.53
16 µg/mL	COC1CCCc2nc(Nc3ccc(I)cc3)sc21 (stereo not given)	> 128 µg/mL	0.53
16 µg/mL	O=C(OC1CCCc2nc(Nc3ccc(Cl)cn3)sc21)n1ccnc1 (stereo not given)	> 128 µg/mL	0.53
16 µg/mL	O=C(OC1CCCc2nc(Nc3ccc(C(F)(F)F)cc3)sc21)n1ccnc1 (stereo not given)	> 128 µg/mL	0.53

MIC [2]	SMILES	MIC [1]	fractional inhibitory concentration index (FICI) [3]
32 µg/mL	OC1CCCc2nc(Nc3ccc(F)cc3)sc21 (stereo not given)	> 128 µg/mL	1.03
32 µg/mL	Clc1ccc(Nc2nc3ccccc3s2)cc1	> 128 µg/mL	1.03
1 µg/mL	CCOC1CCCc2nc(Nc3ccc(Cl)cc3)sc21 (stereo not given)	> 128 µg/mL	0.06
16 µg/mL	COC1CCCc2nc(Nc3ccc(C(C)(C)C)cc3)sc21 (stereo not given)	> 128 µg/mL	0.53
16 µg/mL	COC1CCCc2nc(Nc3ccc(N(C)C)cc3)sc21 (stereo not given)	> 128 µg/mL	0.53
4 µg/mL	COC1CCCc2nc(Nc3ccnc(Cl)c3)sc21 (stereo not given)	> 128 µg/mL	0.16
32 µg/mL	CCCCOC1CCCc2nc(Nc3ccc(C)cc3)sc21 (stereo not given)	> 128 µg/mL	1.03
32 µg/mL	Cc1ccc(Nc2nc3c(s2)C(OC(=O)n2ccnc2)CCC3)cc1 (stereo not given)	> 128 µg/mL	1.03
32 µg/mL	COC1CCCc2nc(Nc3ccc(O)cc3)sc21 (stereo not given)	> 128 µg/mL	1.03
4 µg/mL	CCCC(CCC)OC1CCCc2nc(Nc3ccc(Cl)cc3)sc21 (stereo not given)	> 128 µg/mL	0.16
32 µg/mL	COC1CCCc2nc(Nc3ccc4ccccc4c3)sc21 (stereo not given)	> 128 µg/mL	1.03
32 µg/mL	COC1CCCc2nc(Nc3cccc(C)c3)sc21 (stereo not given)	> 128 µg/mL	1.03
16 µg/mL	FC(F)(F)c1ccc2nc(Nc3ccccc3)sc2c1	> 128 µg/mL	0.53
8 µg/mL	COC1CCCc2nc(Nc3ccc(C(F)(F)F)cc3)sc21 (stereo not given)	> 128 µg/mL	0.28
16 µg/mL	CCCCOC1CCCc2nc(Nc3ccc(Cl)cc3)sc21 (stereo not given)	> 128 µg/mL	0.53
16 µg/mL	COc1ccc(Nc2nc3c(s2)C(OC)CCC3)cc1 (stereo not given)	> 128 µg/mL	0.53
32 µg/mL	COC1CCCc2nc(Nc3ccccc3)sc21 (stereo not given)	> 128 µg/mL	1.03
16 µg/mL	COC1CCCc2nc(Nc3cccc(C(F)(F)F)c3)sc21 (stereo not given)	> 128 µg/mL	0.53
32 µg/mL	COC1CCCc2nc(Nc3nccs3)sc21 (stereo not given)	> 128 µg/mL	1.03
1 µg/mL	COC1CCCc2nc(Nc3c(Cl)cccc3Cl)sc21 (stereo not given)	> 128 µg/mL	0.06
32 µg/mL	COC1CCCc2nc(Nc3cccc(F)c3)sc21 (stereo not given)	> 128 µg/mL	1.03
16 µg/mL	COC1CCCc2nc(Nc3ccc(Oc4ccccc4C)cc3)sc21 (stereo not given)	> 128 µg/mL	0.53

MIC [2]	SMILES	MIC [1]	fractional inhibitory concentration index (FICI) [3]
32 µg/mL	O=C(OC1CCCc2nc(Nc3ccc(F)cc3)sc21)n1ccnc1 (stereo not given)	> 128 µg/mL	1.03
16 µg/mL	COC1CCCc2nc(Nc3ccc(C)cc3)sc21 (stereo not given)	> 128 µg/mL	0.53
32 µg/mL	COC1CCCc2nc(Nc3c(F)cccc3F)sc21 (stereo not given)	> 128 µg/mL	1.03
32 µg/mL	COC1CCCc2nc(Nc3ccc4ccccc4n3)sc21 (stereo not given)	> 128 µg/mL	1.03
32 µg/mL	Clc1ccc(Nc2nc3ccc(Cl)cc3s2)cc1	> 128 µg/mL	1.03
32 µg/mL	O=C(OC1CCCc2nc(Nc3ccc(Cl)cc3)sc21)n1ccnc1 (stereo not given)	> 128 µg/mL	1.03
16 µg/mL	COC1CCCc2nc(Nc3ccc([N+](=O)[O-])cc3)sc21 (stereo not given)	> 128 µg/mL	0.53
32 µg/mL	CCc1ccc(Nc2nc3c(s2)C(OC)CCC3)cc1 (stereo not given)	> 128 µg/mL	1.03
1 µg/mL	CC(C)OC1CCCc2nc(Nc3ccc(Cl)cc3)sc21 (stereo not given)	> 128 µg/mL	0.06
16 µg/mL	CCOC1CCCc2nc(Nc3ccc(Cl)cn3)sc21 (stereo not given)	> 128 µg/mL	0.53
16 µg/mL	COC1CCCc2nc(Nc3ccc(C(C)=O)cc3)sc21 (stereo not given)	> 128 µg/mL	0.53
16 µg/mL	COC1CCCc2nc(Nc3ncccn3)sc21 (stereo not given)	> 128 µg/mL	0.53
16 µg/mL	COC1CCCc2nc(Nc3ccc(Cl)cn3)sc21 (stereo not given)	> 128 µg/mL	0.53
32 µg/mL	Cc1ccc(Nc2nc3c(s2)C(O)CCC3)cc1 (stereo not given)	> 128 µg/mL	1.03
16 µg/mL	COC1CCCc2nc(Nc3ccc(C#N)cc3)sc21 (stereo not given)	> 128 µg/mL	0.53
1 µg/mL	COC1CCCc2nc(Nc3ccc(Cl)cc3)sc21 (stereo not given)	> 128 µg/mL	0.06
8 µg/mL	COC1CCCc2nc(Nc3cccc(Cl)c3)sc21 (stereo not given)	> 128 µg/mL	0.28
32 µg/mL	CCOC1CCCc2nc(Nc3ccc4ccccc4n3)sc21 (stereo not given)	> 128 µg/mL	1.03
32 µg/mL	CCOC1CCCc2nc(Nc3ccc(Oc4ccccc4C)cc3)sc21 (stereo not given)	> 128 µg/mL	1.03
16 µg/mL	OC1CCCc2nc(Nc3ccc(C(F)(F)F)cc3)sc21 (stereo not given)	> 128 µg/mL	0.53
16 µg/mL	COC1CCCc2nc(NN3CCOCC3)sc21 (stereo not given)	> 128 µg/mL	0.53
